Data published in PMC11604048, “Constrained TACC3 peptidomimetics for a non-canonical protein–protein interface elucidate allosteric communication in Aurora-A kinase” (Chemical Science, 2024).
Like-named read-outs stand apart in the source and are kept apart here. *1 amine or outer side, *2 acyl side, *3 side chain or, on linkers, in order; H or OH if unused. Where a SMILES comes first, the peptide text is derived from it. Bridges are numbered along the chain shown (N, C = ends). Where no end group is shown, it is not given here. [ ]: non-standard residue; d: D form. The star is where a group is joined. 5FAM = O=C1OC2(c3ccc(O)cc3Oc3cc(O)ccc32)c2ccc(C(=O)*)cc21; Biphenyl(4,4'-CH2)2 = c1cc(-c2ccc(C[*:2])cc2)ccc1C[*:1]; Pro(trans-4-F) = O=C(O)[C@@H]1C[C@@H](F)CN1; Phe(4-Br) = N[C@@H](Cc1ccc(Br)cc1)C(=O)O; Phe(4-Cl) = N[C@@H](Cc1ccc(Cl)cc1)C(=O)O; Phe(4-I) = N[C@@H](Cc1ccc(I)cc1)C(=O)O; Nle = CCCC[C@H](N)C(=O)O; Ahx = NCCCCCC(=O)O

What was measured:
[1] = target: T1, Aurora-A122-403-C290A/C393A (Homo sapiens, UniProt O14965, C290A/C393A); assay: FA direct binding assay (Aurora-A titrated into FAM-Ahx-labelled peptide); set-up: ΔG: unit not given here; details: for ΔG: Table S6, from direct FA titration, n = 6
T1 construct: Human Aurora-A kinase domain 122-403 wild-type or C290A/ C393A mutant; His tag (pET30TEV vector) (N, cleaved yes); made in house; host or cells: E. coli RIL, co-expressed with lambda phosphatase (Aurora-A); tracer by solid phase synthesis
T1 sequence (O14965 122-403 C290A/C393A): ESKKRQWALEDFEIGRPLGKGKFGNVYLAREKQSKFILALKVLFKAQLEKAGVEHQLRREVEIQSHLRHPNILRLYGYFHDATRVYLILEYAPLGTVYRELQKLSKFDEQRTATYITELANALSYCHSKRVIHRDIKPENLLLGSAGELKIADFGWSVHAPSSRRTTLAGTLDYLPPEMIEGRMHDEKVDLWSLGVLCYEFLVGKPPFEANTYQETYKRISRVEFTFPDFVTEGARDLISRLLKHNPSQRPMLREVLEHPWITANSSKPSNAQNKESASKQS
Procedure: Fluorescence anisotropy (FA) assays – General information.
All assays were performed using 384-well plates(Greiner Bio-one, UK). […]
produced as described previously.11 All samples were prepared in 25 mM Tris,150 mM NaCl, 5 mM MgCl2, […]
(PerkinElmer; Waltham, MA, USA).The parameters were set as follows: Excitation wavelength = 480 nm […]
Measured data were processed and analysed as previously described.12 Specifically, the perpendicular intensity (P) and parallel intensity (S) were subtracted by the control values and used for calculations of intensity and anisotropy using the following Equations 1, 2, 3, 4, and 5:
I= (2PG) + S Eq. (SI − 5)
r = (S − PG) Eq. (SI − 6)
L = r − r௠௜௡ Eq. (SI − 7)
y = (k + x + [FL]) − ඥ(k + x + [FL]2 − 4 ∗ x ∗ [FL]) Eq. (SI − 8)
y = r + r௠௜௡ − r௠௔௫ Eq. (SI − 9)
Where I = total intensity; P = perpendicular intensity; S = parallel intensity; G = instrument factor; r = anisotropy; Lb = ligand bound fraction; λ = change in intensity between bound and unbound states which […]
FA direct binding assays. […]
starting from 700 μM, diluted over 24 points in a 1/2 regime using the FAM-Ahx-labeled peptides at a final fixed concentration of 50 nM per well.

[2] = target: T1, Aurora-A122-403-C290A/C393A; assay: Variable-temperature fluorescence anisotropy (VT-FA) Van't Hoff analysis; assay type: binding
Procedure: Variable-temperature fluorescence anisotropy (VT-FA) Van't Hoff analysis. Variable temperature-fluorescent anisotropy assays were performed in 384-well plates (Greiner Bio-one) with Aurora-A 122-403-290A/C393A protein dialyzed into different assay buffers before use. In this experiment, we prepared five […]
Buffer 1 – 25 mM HEPES, 150 mM NaCl, 5 mM MgCl2, pH= 7.5, Buffer 2 – 25 mM Tris, 150 mM NaCl, 5 mM MgCl2, pH= 7.5, Buffer 3 – 25 mM HEPES, 5 mM MgCl2, pH= 7.5, Buffer 4– 25 mM HEPES, 150 mM NaCl, 5 mM MgCl2, pH= 6.0, Buffer 5– 25 mM HEPES, 150 mM NaCl, 5 mM MgCl2, pH= 8.0, The protein concentration in the first well started at 237 μM in the corresponding buffer, and was diluted over 16 points in a 1/2 dilution regime. The concentration of the labeled peptide was fixed at 50 nM per well. After incubation of the plate at room temperature for 1 h, the plates were read at increasing intervals of 2.5°C, following a minimum period of 5 min equilibration at each temperature. The data was processed as previously described and the ln Ka at each temperature plotted against 1/T (K). The ΔG°, ΔH° and -T*ΔS° were calculated according to Van’t Hoff’s equation (6): […]
r = r଴ + A x e భ Eq. (SI - 10)
τ = tଵ ln(2) Eq. (SI - 11) […]
Western blots were performed using an anti-Phospho-Thr288

[3] = target: T2, Aurora-A 122-403 (Homo sapiens, UniProt O14965); assay: fluorescence anisotropy competition
T2 chain: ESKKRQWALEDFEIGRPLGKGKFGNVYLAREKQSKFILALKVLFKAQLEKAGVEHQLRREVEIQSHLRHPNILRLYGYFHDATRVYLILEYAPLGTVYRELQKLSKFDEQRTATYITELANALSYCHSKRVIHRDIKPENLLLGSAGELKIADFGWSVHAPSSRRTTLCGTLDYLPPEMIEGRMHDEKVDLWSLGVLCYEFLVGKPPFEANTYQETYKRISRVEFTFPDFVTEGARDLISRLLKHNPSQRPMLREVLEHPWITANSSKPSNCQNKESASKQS

[4] = direct FA titration of Aurora-A122-403-C290A/C393A into 50 nM FAM-Ahx-labelled peptide, 25 mM Tris, 150 mM NaCl, 5 mM MgCl2, pH 7.5, 25 °C, mean ± SD, n = 3, read-out: Kd
[5] = Table S6, direct FA titration, 50 nM fluorescein-labelled peptide, Tris buffer pH 7.5, mean ± SD, n = 6, read-out: Kd
[6] = 50 nM fluorescein-labelled peptide, mean ± SD
[7] = as E43, Buffer 1 – 25 mM HEPES, 150 mM NaCl, 5 mM MgCl2, pH= 7.5
[8] = as E43, Buffer 2 – 25 mM Tris, 150 mM NaCl, 5 mM MgCl2, pH= 7.5
[9] = as E43, Buffer 3 – 25 mM HEPES, 5 mM MgCl2, pH= 7.5
[10] = as E43, Buffer 4 – 25 mM HEPES, 150 mM NaCl, 5 mM MgCl2, pH= 6.0
[11] = as E43, Buffer 5 – 25 mM HEPES, 150 mM NaCl, 5 mM MgCl2, pH= 8.0

`CC(C)C[C@H](NC(=O)[C@@H](NC(=O)[C@H](CCC(=O)O)NC(=O)[C@H](C)NC(=O)[C@@H]1CCCN1C(=O)[C@H](CC(=O)O)NC(=O)[C@H](CCCNC(=N)N)NC(=O)[C@H](Cc1ccccc1)NC(=O)[C@H](CO)NC(=O)[C@H](CCC(=O)O)NC(=O)[C@H](CCC(=O)O)NC(=O)CCCCCNC(=O)c1ccc2c(c1)C(=O)OC21c2ccc(O)cc2Oc2cc(O)ccc21)C(C)C)C(=O)NCC(=O)N[C@H](C(=O)NCC(=O)N[C@@H](C)C(N)=O)[C@@H](C)O` [FAM-Ahx-TACC3 522-536] showed a Kd ([1]; SD) of 10.5 ± 1.13 µM.

Work on `CC(C)C[C@H](NC(=O)[C@@H](NC(=O)[C@H](CCC(=O)O)NC(=O)[C@H](C)NC(=O)[C@@H]1CCCN1C(=O)[C@H](CC(=O)O)NC(=O)[C@H](CCCNC(=N)N)NC(=O)[C@H](Cc1ccccc1)NC(=O)[C@H](CO)NC(=O)[C@H](CCC(=O)O)NC(=O)[C@H](CCC(=O)O)NC(=O)CCCCCNC(=O)c1ccc2c(c1)C(=O)OC21c2ccc(O)cc2Oc2cc(O)ccc21)C(C)C)C(N)=O` [FAM-Ahx-TACC3 522-532] ({5FAM-Ahx}-EESFRDPAEVL-NH2) yielded a Kd [1, 4] of 7.1 ± 0.8 µM.

`CC(C)C[C@H](NC(=O)[C@H](Cc1ccc(O)cc1)NC(=O)[C@H](CC(=O)O)NC(=O)[C@@H](NC(=O)[C@H](CCC(=O)O)NC(=O)[C@H](C)NC(=O)CNC(=O)[C@@H](NC(=O)CNC(=O)[C@H](CC(C)C)NC(=O)[C@@H](NC(=O)[C@H](CCC(=O)O)NC(=O)[C@H](C)NC(=O)[C@@H]1CCCN1C(=O)[C@H](CC(=O)O)NC(=O)[C@H](CCCNC(=N)N)NC(=O)[C@H](Cc1ccccc1)NC(=O)[C@H](CO)NC(=O)[C@H](CCC(=O)O)NC(=O)[C@H](CCC(=O)O)NC(=O)CCCCCNC(=O)c1ccc2c(c1)C(=O)OC21c2ccc(O)cc2Oc2cc(O)ccc21)C(C)C)[C@@H](C)O)C(C)C)C(=O)N[C@@H](CCC(=O)O)C(N)=O` [FAM-Ahx-TACC3 522-542] ({5FAM-Ahx}-EESFRDPAEVLGTGAEVDYLE-NH2) gave a Kd [1, 4] of 4.5 ± 0.2 µM.

Work on `CC(C)C[C@H](NC(=O)[C@@H](NC(=O)[C@@H]1CSCc2ccc(cc2)-c2ccc(cc2)CSC[C@H](NC(=O)[C@H](CCC(=O)O)NC(=O)[C@H](CCC(=O)O)NC(=O)[C@H](CCCCN)NC(=O)[C@H](CC(C)C)NC(=O)[C@H](CCC(=O)O)NC(=O)[C@H](CC(C)C)NC(=O)CCCCCNC(=O)c2ccc3c(c2)C(=O)OC32c3ccc(O)cc3Oc3cc(O)ccc32)C(=O)N[C@@H](Cc2ccc(I)cc2)C(=O)N[C@@H](CCCNC(=N)N)C(=O)N[C@@H](CC(=O)O)C(=O)N2C[C@H](F)C[C@H]2C(=O)N[C@@H](C)C(=O)N1)C(C)C)C(N)=O` [FAM-Ahx-TACC3 518-532-S/E-Bph-IF/fP] ({5FAM-Ahx}-LELKEEC[Phe(4-I)]RD[Pro(trans-4-F)]ACVL-NH2; linker 7-13 via Biphenyl(4,4'-CH2)2) yielded a Kd [1, 5] of 0.9 ± 0.2 µM, a ΔG [1, 6] of -34.6 ± 0.6 and a Kd [1, 4] of 0.8 ± 0.2 µM.

In the case of `CC(C)C[C@H](NC(=O)[C@@H](NC(=O)[C@H](CCC(=O)O)NC(=O)[C@H](C)NC(=O)[C@@H]1C[C@@H](F)CN1C(=O)[C@H](CC(=O)O)NC(=O)[C@@H]1CSCc2ccc(cc2)-c2ccc(cc2)CSC[C@H](NC(=O)[C@H](CCC(=O)O)NC(=O)[C@H](CC(C)C)NC(=O)CCCCCNC(=O)c2ccc3c(c2)C(=O)OC32c3ccc(O)cc3Oc3cc(O)ccc32)C(=O)N[C@@H](CCCCN)C(=O)N[C@@H](CCC(=O)O)C(=O)N[C@@H](CCC(=O)O)C(=O)N[C@@H](CO)C(=O)N[C@@H](Cc2ccc(I)cc2)C(=O)N1)C(C)C)C(N)=O` [FAM-Ahx-TACC3 518-532-L/R-Bph-IF/fP] ({5FAM-Ahx}-LECKEES[Phe(4-I)]CD[Pro(trans-4-F)]AEVL-NH2; linker 3-9 via Biphenyl(4,4'-CH2)2), the ΔΔGConstrained-WT ([2]; VT-FA Van't Hoff, 50 nM FAM-Ahx tracers, 25-35 °C, constrained minus linear FAM-Ahx-TACC3 518-532, Buffer 1 – 25 mM HEPES, 150 mM NaCl, 5 mM MgCl2, pH= 7.5, triplicate) is reported as -4.50 ± 3.6 kJ mol -1, the ΔTΔSConstrained-WT [2, 7] is reported as -17.91 ± 2.4 kJ mol -1 and the ΔΔHConstrained-WT [2, 7] is reported as 14.18 ± 2.5 kJ mol -1. The ΔTΔSConstrained-WT [2, 8] was -17.85 ± 1.6 kJ mol -1, the ΔΔGConstrained-WT [2, 8] was -3.17 ± 2.0 kJ mol -1 and the ΔΔHConstrained-WT [2, 8] was 14.67 ± 0.4 kJ mol -1. The ΔTΔSConstrained-WT [2, 9] was -22.94 ± 2.9 kJ mol -1, the ΔΔGConstrained-WT [2, 9] was -6.82 ± 5.9 kJ mol -1 and the ΔΔHConstrained-WT [2, 9] was 16.12 ± 3.0 kJ mol -1. For the same molecule, the ΔTΔSConstrained-WT [2, 10] was -11.33 ± 2.0 kJ mol -1, the ΔΔGConstrained-WT [2, 10] was -4.06 ± 4.1 kJ mol -1 and the ΔΔHConstrained-WT [2, 10] was 7.27 ± 2.1 kJ mol -1. For the same molecule, the ΔTΔSConstrained-WT [2, 11] was -13.22 ± 0.9 kJ mol -1, the ΔΔGConstrained-WT [2, 11] was -3.02 ± 1.8 kJ mol -1 and the ΔΔHConstrained-WT [2, 11] was 10.19 ± 0.9 kJ mol -1. The Kd [1, 5] was 1.42 ± 0.24 µM and the ΔG [1, 6] was -33.4 ± 0.5.

LELKEESFRDPAEVL (not fully specified; L520C/R526C biphenyl constraint; Aurora-A C290A+C393A) [TACC3 L/R-Bph 518-532] showed an IC50 [3] of roughly 30 µM.

EESFRD[cis‑Pro(4-F)]AEVLGTGA [TACC3 cis-(4-F)Pro528 522-536] was tested, and the IC50 [3] was greater than 200 µM.

Molecule EESFRDPAE[Nle]LGTGA [TACC3 V531nL 522-536] has an IC50 [3] greater than 300 µM.

With EESFRDPAEV[Nle]GTGA [TACC3 L532nL 522-536] the IC50 [3] was 213 µM.

EES[Phe(4-Cl)]RDPAEVLGTGA [TACC3 (4-Cl)Phe525 522-536] was tested, and the IC50 [3] was 46 µM.

EES[Phe(4-Br)]RDPAEVLGTGA [TACC3 (4-Br)Phe525 522-536] was tested, and the IC50 [3] was 34 µM.

In the case of EESFRD[trans‑Pro(4-F)]AEVLGTGA [TACC3 trans-(4-F)Pro528 522-536], the IC50 [3] is reported as 60 µM.
